Patent US11155576B2, “Synthetic peptides, enzymatic formation of pericellular hydrogels/nanofibrils, and methods of use” (BRANDEIS UNIVERSITY, priority 2014, dated 2021)

How the values were obtained:
Ect1/E6E7 cells = experiment: Confocal microscopy, Congo red/DAPI staining, Ect1/E6E7; assay type: cell-based, human; conditions: 560 μM, 12 hours
Procedure: Cells in exponential growth phase were seeded in a glass bottomed culture chamber at 2×10^4 cells/well. Cells were allowed to attach for 24 hours at 37° C., 5% CO2. […] Following 12 hours of incubation, cells were washed 3 times with PBS prior to being stained with 0.1 mg/mL Congo red and 0.6 μM DAPI in PBS buffer (30 minutes at 37° C. in the dark). Next, cells were rinsed three times with PBS, and then kept in PBS for imaging.
Ect1/E6E7 cells (immortalized normal human cervical epithelial cells, which have same tissue and organ origins as HeLa cells) were treated with the same procedure as described for HeLa cells above. […] The difference of hydrogel/nanonets formation by D-2a conversion to D-2b on HeLa cells and Ect1/E6E7 cells agrees with the notion that HeLa cells have higher levels of phosphatase activity than Ect1/E6E7 cells (FIG. 9).

HeLa cells = experiment: Cell migration (wound healing) assay; assay type: cell-based, human; conditions: 18 hours
Procedure: Cell migration was evaluated using the wound healing assay with the CytoSelect™ Wound Healing Assay Kit (Cell Biolabs, Inc). Wound healing inserts with width at 0.9 mm were placed into 24-well plates. 0.8 mL of HeLa cells at 2×10^5 cells/mL were added to either side of the insert and incubated overnight to form a confluent layer. Inserts were then carefully removed to expose the gap. After removing the culture medium, new medium containing the molecules was added to cells. The cells were next incubated at 37° C., 5% CO2 for 18 hours. Images of gaps before and after the addition of the molecules were captured using a microscope at a magnification of ×40. Cell migration was quantified by measuring the change in gap distance.

MES-SA/dx5 cells [1] = experiment: Cell viability assay (MTT), MES-SA/dx5; assay type: cell-based, human; conditions: 280 μM; multi-drug resistant cells
Procedure: Cells in exponential growth phase were seeded in a 96 well plate at a concentration of 2×10^4 cells/well. The cells were allowed to attach to the wells for 24 hours at 37° C., 5% CO2. The culture medium was removed and 100 μL culture medium containing compounds (immediately diluted from fresh prepared stock solution of 10 mM) at gradient concentrations (0 μM as the control) was placed into each well. After culturing at 37° C., 5% CO2 for 48 hours, each well was added by 10 μL of 5 mg/mL MTT (3-(4,5-dimethylthiazoL-2-yl)-2,5-diphenyltetrazolium bromide), and the plated cells were incubated in the dark for 4 hours. 100 μL 10% SDS with 0.01M HCl was added to each well to stop the reduction reaction and to dissolve the purple. After overnight incubation of the cells at 37° C., the OD at 595 nm of the solution was measured in a microplate reader. Data represent the mean±standard deviation of three independent experiments.

MES-SA cells = experiment: Pericellular hydrogel/nanonets on MES-SA cells (Congo red/DAPI); assay type: cell-based; conditions: 280 μM, 12 hours
Procedure: FIG. 11 illustrates overlaid and 3D stacked z-scan images of Congo red and DAPI stained MES-SA and MES-SA/Dx5 cells treated with either 280 μM D-2a (upper panel) or medium alone (control, lower panel) for 12 hours. Scale bar=[…]. White dots outline the cells.
Cells in exponential growth phase were seeded in a glass bottomed culture chamber at 2×10^4 cells/well. Cells were allowed to attach for 24 hours at 37° C., 5% CO2. The culture medium was removed, and replaced with culture medium containing D-2a at 280 μM. Following 12 hours of incubation, cells were washed 3 times with PBS prior to being stained with 0.1 mg/mL Congo red and 0.6 μM DAPI in PBS buffer (30 minutes at 37° C. in the dark). Next, cells were rinsed three times with PBS, and then kept in PBS for imaging.

active PARP = experiment: Apoptosis pathway assay (ELISA), active PARP; assay type: cell-based, human; conditions: HeLa cells, 280 μM, at 24 and 32 hours of incubation
Procedure: The apoptosis pathway was evaluated using the PathScan® Apoptosis Multi-Target Sandwich ELISA Kit (Cell Signaling Technology) following the supplied protocol. Cells in exponential growth phase were seeded in a 6 cm Petri dish at a concentration of 10×10^5 cells/dish (5 dishes). Cells were allowed to attach to the wells for 24 hours at 37° C., 5% CO2. The culture medium was removed and 5 mL medium containing 280 μM D-2a (immediately diluted from fresh prepared stock solution of 11.2 mM) was placed into each dish. At 0, 6, 12, 24, or 32 hours, the medium was removed and cells were washed three times with cold PBS buffer. 0.9 mL lysis buffer was used to lyse cells in each dish, and 0.9 mL of diluents buffer was used to dilute each of the cell lysate. The lysate was incubated in the provided 96 well plate at 4° C. for 24 hours.
ELISA was used to quantify the amount of several key apoptosis signal molecules over time in the HeLa cells incubated with 280 μM D-2a (FIG. 3E).

MES-SA/Dx5 cells [2] = experiment: MES-SA/Dx5 tumor model in nude mice; assay type: in vivo; conditions: subcutaneous and peritumoral, 800 μg dose (~32 mg/kg), 6 times every 3 days
Procedure: Nine nude mice were used for experiments to define the tumor growth curve. 1×10^7 MES-SA/Dx5 cells were implanted into the mice via […] using a 25 G needle. Three of the tumor-bearing mice were used to define the tumor growth curve with control treatment, and six mice were given D-2a. The mice were injected subcutaneously and peritumorally (6 times, every 3 days starting at Day 1) with either 100 μL of D-2a at 8 μg/μL (800 μg dose or ˜32 mg/kg) in PBS buffer (experimental) or 100 μL of PBS buffer (control). Tumor volume measurements were made every three days, also starting on Day 1. Volume of tumors was measured by caliper.

Question: With `O=C(Cc1ccc2ccccc2c1)N[C@H](Cc1ccccc1)C(=O)N[C@H](Cc1ccccc1)C(=O)N[C@H](Cc1ccc(OP(=O)(O)O)cc1)C(=O)O` [D-2a, Nap-D-Phe-D-Phe-D-Tyr(PO3H2)] as the compound, how does the “Congo red fluorescence on cells” value (Ect1/E6E7 cells) read?
Answer: hardly display any red fluorescence

Question: And the “DAPI entry into cells” value (Ect1/E6E7 cells)?
Answer: DAPI stains the nuclei

Question: And the “Cell migration (gap)” value (HeLa cells; 280 μM)?
Answer: gaps larger than those of untreated cells

Question: What about the “Cell migration (gap)” value (HeLa cells; 560 μM) of the same compound?
Answer: gaps larger than those of untreated cells

Question: And the Growth inhibition (MES-SA/dx5 cells [1])?
Answer: inhibits the growth

Question: What about the Pericellular hydrogel/nanonets formation (MES-SA cells) of the same compound?
Answer: forms pericellular hydrogel/nanonets

Question: And the “Amount of active PARP” value (active PARP)?
Answer: increase significantly

Question: And the “Day by which statistically significant differences between experimental and control groups were observed” value (MES-SA/Dx5 cells [2])?
Answer: ≤ 13 days

Question: What about the “Relative tumor volume / tumor growth” value (MES-SA/Dx5 cells [2]) of the same compound?
Answer: inhibited tumor growth
